Assays:
smartweed [1] = experiment: Test E postemergence; assay type: in vivo, Polygonum persicaria; settings: scale 0 to 100
Description: […]
At the same time, plants from these crop and weed species and also waterhemp_RES1, (ALS & Triazine resistant common waterhemp, Amaranthus rudis), and waterhemp_RES2, (ALS & HPPD resistant common waterhemp, Amaranthus rudis) were planted in pots containing Sunshine Redi-Earth® planting medium comprising spaghnum peat moss, vermiculite, starter nutrients and dolomitic limestone were treated with postemergence applications of test chemicals formulated in the same manner. […] Treated plants and controls were maintained in a greenhouse for 14 to 21 d, after which time all species were compared to controls and visually evaluated. […]

smartweed [2] = experiment: Test E preemergence; assay type: in vivo, Polygonum persicaria; settings: scale 0 to 100
From the text: (§1) Seeds of plant species selected from corn (Zea mays), soybean (Glycine max), lambsquarters (Chenopodium album), poinsettia, wild (wild poinsettia, Euphorbia heterophylla), pigweed, palmer (palmer pigweed, Amaranthus palmeri), waterhemp (common waterhemp, Amaranthus rudis), surinam grass (Brachiaria decumbens), crabgrass, large (large crabgrass, Digitaria sanguinalis), crabgrass, Brazilian (Brazilian crabgrass, Digitaria horizontalis), panicum, fall (fall panicum, Panicum dichotomiflorum), foxtail, giant (giant foxtail, Setaria faberii), foxtail, green (green foxtail, Setaria viridis), goosegrass (Eleusine indica), johnsongrass (Sorghum halepense), ragweed (common ragweed, Ambrosia elatior), barnyardgrass (Echinochloa crus-galli), sandbur (southern sandbur, Cenchrus echinatus), arrowleaf sida (Sida rhombifolia), ryegrass, Italian (Italian ryegrass, Lolium multiflorum), dayflower, VA (Virginia dayflower, Commelina virginica), field bindweed (Convolvulus arvensis), cocklebur (common cocklebur, Xanthium strumarium), morningglory (Ipomoea coccinea), nightshade (eastern black nightshade, Solanum ptycanthum), kochia (Kochia scoparia), nutsedge, yellow (yellow nutsedge, Cyperus esculentus), smartweed (ladysthumb smartweed, Polygonum persicaria), velvetleaf (Abutilon theophrasti), horseweed (Conyza canadensis), and beggarticks (hairy beggarticks, Bidens pilosa), were planted into a silt loam soil and treated preemergence with test chemicals formulated in a non-phytotoxic solvent mixture which included a surfactant.
(§2) At the same time, plants from these crop and weed species and also waterhemp_RES1, (ALS & Triazine resistant common waterhemp, Amaranthus rudis), and waterhemp_RES2, (ALS & HPPD resistant common waterhemp, Amaranthus rudis) were planted in pots containing Sunshine Redi-Earth® planting medium comprising spaghnum peat moss, vermiculite, starter nutrients and dolomitic limestone were treated with postemergence applications of test chemicals formulated in the same manner. Plants ranged in height from 2 to 18 cm for postemergence treatments (1- to 4-leaf stage). Treated plants and controls were maintained in a greenhouse for 14 to 21 d, after which time all species were compared to controls and visually evaluated. Plant response ratings, summarized in Table E, are based on a scale of 0 to 100 where 0 is no effect and 100 is complete control. A dash (-) response means no test result.

cocklebur = experiment: Test E preemergence; assay type: in vivo, Xanthium strumarium; settings: scale 0 to 100
From the text: as §1, §2

poinsettia, wild = experiment: Test E postemergence; assay type: in vivo, Euphorbia heterophylla; settings: scale 0 to 100
From the text: as §1, §2

corn = experiment: Test E preemergence; assay type: in vivo, Zea mays; settings: scale 0 to 100
From the text: as §1, §2

[3] = test system: waterhemp_RES1 (ALS & Triazine resistant common waterhemp); experiment: Test E postemergence; assay type: in vivo, Amaranthus rudis; settings: scale 0 to 100
From the text: as §1, §2

[4] = test system: waterhemp_RES2 (ALS & HPPD resistant common waterhemp); experiment: Test E postemergence; assay type: in vivo, Amaranthus rudis; settings: scale 0 to 100
From the text: as §1, §2

barnyardgrass = experiment: Test C flooded paddy test; assay type: in vivo, Echinochloa crus-galli; settings: Flood, applied to paddy water, rating after 13 to 15 d
From the text: (§3) At time of treatment, test pots were flooded to 3 cm above the soil surface, treated by application of test compounds directly to the paddy water, and then maintained at that water depth for the duration of the test. Treated plants and controls were maintained in a greenhouse for 13 to 15 d, after which time all species were compared to controls and visually evaluated. […] A dash (-) response means no test result.

ducksalad = experiment: Test C flooded paddy test; assay type: in vivo, Heteranthera limosa; settings: Flood, applied to paddy water, rating after 13 to 15 d
From the text: as §3

rice = experiment: Test C flooded paddy test; assay type: in vivo, Oryza sativa; settings: Flood, applied to paddy water, rating after 13 to 15 d
From the text: as §3

sedge, umbrella = experiment: Test C flooded paddy test; assay type: in vivo, Cyperus difformis; settings: Flood, applied to paddy water, rating after 13 to 15 d
From the text: as §3

ragweed = experiment: Test E postemergence; assay type: in vivo, Ambrosia elatior; settings: scale 0 to 100
From the text: as §1, §2

horseweed [5] = experiment: Test E postemergence; assay type: in vivo, Conyza canadensis; settings: scale 0 to 100
From the text: as §1, §2

horseweed [6] = experiment: Test E preemergence; assay type: in vivo, Conyza canadensis; settings: scale 0 to 100
From the text: as §1, §2

SMILES	Plant response rating (corn; 16 g ai/ha)	Plant response rating (corn; 31 g ai/ha)	Plant response rating (corn; 62 g ai/ha)	Plant response rating (corn; 125 g ai/ha)	Plant response rating (corn; 250 g ai/ha)	Plant response rating ([3]; 31 g ai/ha)	Plant response rating ([3]; 62 g ai/ha)	Plant response rating ([3]; 125 g ai/ha)	Plant response rating ([3]; 250 g ai/ha)	Plant response rating ([4]; 31 g ai/ha)	Plant response rating ([4]; 62 g ai/ha)	Plant response rating ([4]; 125 g ai/ha)	Plant response rating ([4]; 250 g ai/ha)	Plant response rating (ragweed; 31 g ai/ha)	Plant response rating (ragweed; 62 g ai/ha)	Plant response rating (ragweed; 125 g ai/ha)	also measured
CCc1nc(-c2ccc(C(F)(F)F)cc2)nn1Cc1ccnc(C(F)(F)F)c1 [Compound 1, 4-[[5-ethyl-3-[4-(trifluoromethyl)phenyl]-1H-1,2,4-triazol-1-yl]methyl]-2-(trifluoromethyl)pyridine]	0	0	10	25	35	90	90	95	95	85	85	90	95	–	–	–	Plant response rating (smartweed [1]; 125 g ai/ha): 30; Plant response rating (smartweed [1]; 250 g ai/ha): 80; Plant response rating (smartweed [2]; 16 g ai/ha): 25; Plant response rating (smartweed [2]; 31 g ai/ha): 40; Plant response rating (smartweed [2]; 62 g ai/ha): 50; Plant response rating (smartweed [2]; 125 g ai/ha): 60; Plant response rating (smartweed [2]; 250 g ai/ha): 80; Plant response rating (cocklebur; 16 g ai/ha): 0; Plant response rating (cocklebur; 31 g ai/ha): 0; Plant response rating (cocklebur; 62 g ai/ha): 0; Plant response rating (cocklebur; 125 g ai/ha): 10; Plant response rating (cocklebur; 250 g ai/ha): 30; Plant response rating (poinsettia, wild; 16 g ai/ha): 60; Plant response rating (poinsettia, wild; 31 g ai/ha): 70; Plant response rating (poinsettia, wild; 62 g ai/ha): 75; Plant response rating (poinsettia, wild; 125 g ai/ha): 80; Plant response rating (poinsettia, wild; 250 g ai/ha): 90; Plant response rating ([3]; 16 g ai/ha): 90; Plant response rating ([4]; 16 g ai/ha): 80
Cn1nc(-c2ccc(F)cc2)nc1Oc1cccc(C(F)(F)F)c1 [Compound 5, 3-(4-fluorophenyl)-1-methyl-5-[3-(trifluoromethyl)phenoxy]-1H-1,2,4-triazole]	–	–	–	–	–	–	–	–	–	–	–	–	–	–	–	–	Barnyardgrass plant response rating (0 to 100) (barnyardgrass; 31 g ai/ha): 10; Barnyardgrass plant response rating (0 to 100) (barnyardgrass; 62 g ai/ha): 10; Barnyardgrass plant response rating (0 to 100) (barnyardgrass; 125 g ai/ha): 15; Barnyardgrass plant response rating (0 to 100) (barnyardgrass; 250 g ai/ha): 15; Ducksalad plant response rating (0 to 100) (ducksalad; 31 g ai/ha): 20; Ducksalad plant response rating (0 to 100) (ducksalad; 62 g ai/ha): 30; Ducksalad plant response rating (0 to 100) (ducksalad; 125 g ai/ha): 40; Ducksalad plant response rating (0 to 100) (ducksalad; 250 g ai/ha): 60; Rice plant response rating (0 to 100) (rice; 31 g ai/ha): 0; Rice plant response rating (0 to 100) (rice; 62 g ai/ha): 0; Rice plant response rating (0 to 100) (rice; 125 g ai/ha): 0; Rice plant response rating (0 to 100) (rice; 250 g ai/ha): 0; Sedge, Umbrella plant response rating (0 to 100) (sedge, umbrella; 31 g ai/ha): 0; Sedge, Umbrella plant response rating (0 to 100) (sedge, umbrella; 62 g ai/ha): 0; Sedge, Umbrella plant response rating (0 to 100) (sedge, umbrella; 125 g ai/ha): 20; Sedge, Umbrella plant response rating (0 to 100) (sedge, umbrella; 250 g ai/ha): 40
CCCc1nc(-c2ccc(F)cc2)nn1Cc1ccnc(C(F)(F)F)c1 [Compound 6, 4-[[3-(4-fluorophenyl)-5-propyl-1H-1,2,4-triazol-1-yl]methyl]-2-(trifluoromethyl)pyridine]	0	15	30	50	60	–	–	–	–	–	–	–	–	–	–	–	Plant response rating (smartweed [2]; 16 g ai/ha): 20; Plant response rating (smartweed [2]; 31 g ai/ha): 50; Plant response rating (smartweed [2]; 62 g ai/ha): 60; Plant response rating (smartweed [2]; 125 g ai/ha): 95; Plant response rating (smartweed [2]; 250 g ai/ha): 95; Plant response rating (cocklebur; 16 g ai/ha): 0; Plant response rating (cocklebur; 31 g ai/ha): 0; Plant response rating (cocklebur; 62 g ai/ha): 0; Plant response rating (cocklebur; 250 g ai/ha): 10
CCOc1nc(-c2ccc(F)cc2)nn1Cc1ccnc(C(F)(F)F)c1 [Compound 8, 4-[[5-ethoxy-3-(4-fluorophenyl)-1H-1,2,4-triazol-1-yl]methyl]-2-(trifluoromethyl)pyridine]	–	–	25	65	–	–	–	–	–	–	–	–	–	–	–	–	–
CCOc1nc(-c2ccccc2)nn1Cc1ccnc(C(F)(F)F)c1 [Compound 27]	0	0	25	50	–	95	95	98	–	95	90	90	–	50	50	60	Plant response rating (ragweed; 16 g ai/ha): 50; Plant response rating ([3]; 16 g ai/ha): 95; Plant response rating ([4]; 16 g ai/ha): 90
COc1nc(-c2ccc(Cl)cc2)nn1Cc1ccnc(C(F)(F)F)c1 [Compound 28]	–	–	–	–	–	95	95	95	95	95	90	90	95	40	40	40	Plant response rating (ragweed; 250 g ai/ha): 50; Plant response rating (horseweed [5]; 31 g ai/ha): 20; Plant response rating (horseweed [5]; 62 g ai/ha): 20; Plant response rating (horseweed [5]; 125 g ai/ha): 35; Plant response rating (horseweed [5]; 250 g ai/ha): 40
Fc1ccc(-c2nc(OCC(F)(F)F)n(Cc3ccnc(C(F)(F)F)c3)n2)cc1 [Compound 30]	–	0	0	0	50	95	98	100	95	95	95	95	95	65	70	75	Plant response rating (ragweed; 250 g ai/ha): 80; Plant response rating (horseweed [6]; 31 g ai/ha): 100; Plant response rating (horseweed [6]; 62 g ai/ha): 100; Plant response rating (horseweed [6]; 125 g ai/ha): 100; Plant response rating (horseweed [6]; 250 g ai/ha): 100
